Assay results from ChEMBL document CHEMBL1127115, “Synthesis and antihypertensive activity of KC-399, a benzopyran K+ channel opener with long duration of action and less tachycardia” (Bioorg Med Chem Lett, 1993).

Columns and labels:
Assay type in all cases: functional
Rattus norvegicus [1] = assay: Mean blood pressure was determined in conscious male spontaneously hypertensive rats (SHR) at a dose of 0.01 mg/Kg
Rattus norvegicus [2] = assay: Mean blood pressure was determined in conscious male spontaneously hypertensive rats (SHR) at a dose of 0.03 mg/Kg
Rattus norvegicus [3] = assay: Antihypertensive activity in spontaneously hypertensive rats (SHR) expressed as dose required to produce fall in mean blood pressure (MBP) by peroral administration
Rattus norvegicus [4] = assay: Tested for antihypertensive activity in spontaneously hypertensive rats (SHR) as dose required to produce fall in mean blood pressure (MBP) by peroral administration
Rattus norvegicus [5] = organism: Rattus norvegicus; assay: Tested for effective concentration required to relax contraction induced by 30 mM KCl in rat aorta
Rattus norvegicus [6] = assay: Heart rate was determined in conscious male spontaneously hypertensive rats (SHR) at a dose of 0.01 mg/Kg dose
Rattus norvegicus [7] = assay: Heart rate was determined in conscious male spontaneously hypertensive rats (SHR) at a dose of 0.03 mg/Kg dose
Rattus norvegicus [8] = assay: Tested for antihypertensive activity, duration of action at the dose of 0.03 mg/Kg was determined; ranges from 7-8h
Rattus norvegicus [9] = assay: Mean blood pressure was determined in conscious male SHR at a dose of 0.1 mg/Kg
Rattus norvegicus [10] = assay: Mean blood pressure was determined in conscious male spontaneously hypertensive rats (SHR) at a dose of 0.3 mg/Kg
Rattus norvegicus [11] = assay: Heart rate was determined in conscious male spontaneously hypertensive rats (SHR) at a dose of 0.1 mg/Kg
Rattus norvegicus [12] = assay: Heart rate was determined in conscious male spontaneously hypertensive rats (SHR) at a dose of 0.3 mg/Kg

EC50 (Rattus norvegicus [5]) [nM] | Compound | Blood pressure (Rattus norvegicus [1]) [mmHg] | Blood pressure (Rattus norvegicus [2]) [mmHg] | Dose (Rattus norvegicus [3]) [mg/kg] | Dose (Rattus norvegicus [4]) [mg/kg] | Heart rate (Rattus norvegicus [6]) [beats min-1] | Heart rate (Rattus norvegicus [7]) [beats min-1] | Duration of action (Rattus norvegicus [8]) [h] | Blood pressure (Rattus norvegicus [9]) [mmHg] | Blood pressure (Rattus norvegicus [10]) [mmHg] | Heart rate (Rattus norvegicus [11]) [beats min-1] | Heart rate (Rattus norvegicus [12]) [beats min-1]
0.3 | N#CCC/N=C(\S)C1=CC(CF)(CF)Oc2ccc([N+](=O)[O-])cc21 | 156 | 155 | 0.03 | 0.01 | 310 | 323 | 7 |  |  |  | 
150 | CC1(C)Oc2ccc(C#N)cc2C(N2CCCC2=O)C1O (stereo unspecified) [CROMAKALIM] |  |  |  |  |  |  |  |  |  |  | 
 | CC1(C)Oc2ccc(C#N)cc2[C@@H](N2CCCC2=O)[C@@H]1O [LEVCROMAKALIM] |  |  | 0.3 | 0.1 |  |  | 7 | 146 | 153 | 318 | 313
